Consider 35 molecules from patent publication US12435062B2, “Amide compounds and uses thereof” (HUTCHISON MEDIPHARMA LIMITED, priority 2020, dated 2025).

The target in test [1] is CSF1R phosphorylation in THP-1 cells (Homo sapiens (Human), UniProt P07333). The test can be described thus: Detection of CSF1R phosphorylation activity at cell level (THP-1, M-CSF stimulated, ELISA). The format is cell-based. To be noted: p-CSF1R ELISA, compound 60 min, 300 ng/mL M-CSF 1 min. The gist of the method: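 THP-1 cells (5×10^4/well, RPMI 1640, 2% FBS) were pre-treated with compound for 60 min at 37 °C, then stimulated with 300 ng/mL M-CSF for 1 min and lysed. Phospho-CSF1R was read by sandwich ELISA (p-CSF1R capture, anti-phosphotyrosine-HRP detection, OD 450/570 nm). IC50 was fitted with cell-free wells as background.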

Test [2] concerns the target Recombinant human CSF1R kinase (Homo sapiens (Human), UniProt P07333). It is filed as biochemical. To be noted: Z-LYTE Tyr 1 peptide substrate.
Test [3] deals with Ba/F3^BCR-FMS-11 cells. The test can be described thus: Cell proliferation experiment (Ba/F3^BCR-FMS-11, cckit-8). As to conditions: Ba/F3^BCR-FMS-11 cell proliferation. It is filed as cell-based, mouse. In a few lines:
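Ba/F3 cells stably expressing BCR-FMS, CSF-1R-dependent for growth, seeded at 5000/well in RPMI 1640 with 10% FBS and exposed to 8 compound concentrations for 72 h at 37 °C.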

Chain of CSF1R phosphorylation in THP-1 cells (P07333 20-972): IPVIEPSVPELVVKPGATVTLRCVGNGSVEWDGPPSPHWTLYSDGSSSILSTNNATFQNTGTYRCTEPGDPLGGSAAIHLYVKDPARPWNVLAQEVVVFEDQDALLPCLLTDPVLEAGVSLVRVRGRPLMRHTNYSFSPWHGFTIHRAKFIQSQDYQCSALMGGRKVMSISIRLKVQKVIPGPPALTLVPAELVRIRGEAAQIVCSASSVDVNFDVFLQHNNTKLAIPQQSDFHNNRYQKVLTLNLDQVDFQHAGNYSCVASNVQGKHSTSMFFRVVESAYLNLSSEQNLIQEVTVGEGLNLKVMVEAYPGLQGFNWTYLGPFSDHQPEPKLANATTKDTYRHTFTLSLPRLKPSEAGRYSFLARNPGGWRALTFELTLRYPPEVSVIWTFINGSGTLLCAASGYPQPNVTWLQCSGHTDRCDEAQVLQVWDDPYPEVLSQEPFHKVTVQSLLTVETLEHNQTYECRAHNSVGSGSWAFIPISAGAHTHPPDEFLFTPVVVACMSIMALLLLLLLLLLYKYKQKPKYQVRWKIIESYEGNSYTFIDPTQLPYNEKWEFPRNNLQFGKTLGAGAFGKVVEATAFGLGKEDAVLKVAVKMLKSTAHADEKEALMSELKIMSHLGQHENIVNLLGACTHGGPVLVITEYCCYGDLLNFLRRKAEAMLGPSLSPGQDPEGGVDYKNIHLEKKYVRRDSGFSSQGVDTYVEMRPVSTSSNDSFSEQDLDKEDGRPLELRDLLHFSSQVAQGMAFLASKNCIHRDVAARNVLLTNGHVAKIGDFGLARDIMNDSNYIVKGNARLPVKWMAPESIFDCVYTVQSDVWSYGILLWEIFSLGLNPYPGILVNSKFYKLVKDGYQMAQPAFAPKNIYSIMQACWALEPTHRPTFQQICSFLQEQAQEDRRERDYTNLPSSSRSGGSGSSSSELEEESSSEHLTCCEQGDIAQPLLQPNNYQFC
Chain of Recombinant human CSF1R kinase (P07333 20-972): as above

As to `Cn1ccc(Nc2cc(Oc3ccc(NC(=O)c4cccn(C)c4=O)nc3)ccn2)n1` [Compound 46], the IC50 came out at 9 nM in test [1]; 12 nM in test [2]; 20 nM in test [3] (Mus musculus, 72 h).
In the same order, the values of `C=CCn1cccc(C(=O)Nc2ccc(Oc3ccnc(-c4cnn(C)c4)c3)cn2)c1=O` [Compound 88] are 10 nM, 3 nM and 8 nM.
The corresponding values for `Cc1ncc(C(=O)Nc2ccc(Oc3ccnc(-c4cnn(C)c4)c3)cn2)c(=O)[nH]1` [Compound 131, 2-methyl-N-(5-((2-(1-methyl-1H-pyrazol-4-yl)pyridin-4-yl)oxy)pyridin-2-yl)-6-oxo-1,6-dihydropyrimidine-5-carboxamide] are 56 nM, 76 nM and 396 nM.
For `[2H]C([2H])([2H])n1c(C)ncc(C(=O)Nc2ccc(Oc3ccnc(-c4cnn(C)c4)c3)cn2)c1=O` [Compound 128, 2-methyl-1-(methyl-d3)-N-(5-((2-(1-methyl-1H-pyrazol-4-yl)pyridin-4-yl)oxy)pyridin-2-yl)-6-oxo-1,6-dihydropyrimidine-5-carboxamide], the IC50 turned out to be 6 nM in test [1]; 5 nM in test [2]; 2 nM in test [3] (Mus musculus, 72 hours).
Consider `Cn1cc(-c2cc(Oc3ccc(NC(=O)c4cnc5n(c4=O)CCC5)nc3)ccn2)cn1` [Compound 11], for which the IC50 in test [1] turned out to be 6 nM; in test [2], 5 nM; in test [3] (Mus musculus, 72 h) it was 6 nM.
Turning to `Cc1ncc(C(=O)Nc2ccc(Oc3ccnc(Nc4ccn(C)n4)c3)cn2)c(=O)n1C` [Compound 42], the IC50 in test [1] stood at 6 nM; in test [2], 5 nM; in test [3] (Mus musculus, 72 h), 6 nM.
For the molecule `Cc1ncc(C(=O)Nc2ccc(Oc3ccnc(-c4ccc5nccn5c4)c3)cn2)c(=O)n1C` [Compound 64], the IC50 in test [1] was found to be 21 nM; in test [2] it was 16 nM; in test [3] (Mus musculus, 72 h), 40 nM.
The corresponding values for `CC(C)n1cncc(C(=O)Nc2ccc(Oc3ccnc(-c4cnn(C)c4)c3)cn2)c1=O` [Compound 56] are 21 nM, 4 nM and 8 nM.
In the same order, the values of `Cn1cc(-c2cc(Oc3ccc(NC(=O)c4cccn(C5COC5)c4=O)nc3)ccn2)cn1` [Compound 83] are 13 nM, 9 nM and 7 nM.
With `CC(C)n1cccc(C(=O)Nc2ncc(Oc3ccnc(-c4cnn(C)c4)c3)cc2F)c1=O` [Compound 108], the IC50 in test [1] worked out at 24 nM; in test [2], 11 nM; in test [3] (Mus musculus, 72 h) it was 12 nM.
The corresponding values for `Cn1cc(-c2cc(Oc3ccc(NC(=O)c4cccn(C5CC5)c4=O)nc3)ccn2)cn1` [Compound 104, 1-cyclopropyl-N-(5-((2-(1-methyl-1H-pyrazol-4-yl)pyridin-4-yl)oxy)pyridin-2-yl)-2-oxo-1,2-dihydropyridine-3-carboxamide] are 14 nM, 5 nM and 6 nM.
In the same order, the values of `Cc1c(F)cc(C(=O)Nc2ccc(Oc3ccnc(-c4cnn(C)c4)c3)cn2)c(=O)n1C` [Compound 12] are 143 nM, 9 nM and 66 nM.
In the same order, the values of `Cn1cc(-c2cc(Oc3ccc(NC(=O)c4cncn(C)c4=O)nc3)ccn2)cn1` [Compound 10] are 62 nM, 15 nM and 88 nM.
In the case of `CC(C)n1cccc(C(=O)Nc2ccc(Oc3ccnc(Nc4cnn(C)c4)c3)cn2)c1=O` [Compound 96, 1-isopropyl-N-(5-((2-((1-methyl-1H-pyrazol-4-yl)amino)pyridin-4-yl)oxy)pyridin-2-yl)-2-oxo-1,2-dihydropyridine-3-carboxamide], the IC50 in test [1] worked out at 8 nM; in test [2], 8 nM; in test [3] (Mus musculus, 72 h), 10 nM.
Take `CNc1ccc(C(=O)Nc2ccc(Oc3ccnc(-c4cnn(C)c4)c3)cn2)c(=O)n1C` [Compound 106, 1-methyl-N-(5-((2-(1-methyl-1H-pyrazol-4-yl)pyridin-4-yl)oxy)pyridin-2-yl)-6-(methylamino)-2-oxo-1,2-dihydropyridine-3-carboxamide]: the IC50 in test [1] stood at 10 nM; in test [2], 7 nM; in test [3] (Mus musculus, 72 h), 7 nM.
`Cc1ncc(C(=O)Nc2ccc(Oc3ccnc(-c4cnn(C(C)C)c4)c3)cn2)c(=O)n1C` [Compound 39]: the IC50 is 12 nM in test [1]; 33 nM in test [2]; 63 nM in test [3] (Mus musculus, 72 h).
Regarding `COCCn1cccc(C(=O)Nc2ccc(Oc3ccnc(-c4cnn(C)c4)c3)cn2)c1=O` [Compound 82], the IC50 in test [1] is 11 nM; in test [2], 6 nM; in test [3] (Mus musculus, 72 h), 9 nM.
The corresponding values for `Cn1cc(-c2cc(Oc3ccc(NC(=O)c4ccc[nH]c4=O)nc3)ccn2)cn1` [Compound 9, N-(5-((2-(1-methyl-1H-pyrazol-4-yl)pyridin-4-yl)oxy)pyridin-2-yl)-2-oxo-1,2-dihydropyridine-3-carboxamide] are 105 nM, 12 nM and 107 nM.
The corresponding values for `Cn1nccc1Nc1cc(Oc2ccc(NC(=O)c3cc(F)cn(C)c3=O)nc2)ccn1` [Compound 77] are 10 nM, 6 nM and 5 nM.
Regarding `Cc1ncc(C(=O)Nc2ncc(Oc3ccnc(-c4cnn(C)c4)c3)cc2F)c(=O)n1C` [Compound 23], the IC50 in test [1] was found to be 38 nM; in test [2] it was 22 nM; in test [3] (Mus musculus, 72 h) it was 45 nM.
For the molecule `CC(C)n1cccc(C(=O)Nc2ccc(Oc3ccnc(-c4ccnn4C)c3)cn2)c1=O` [Compound 70], the IC50 in test [1] worked out at 203 nM; in test [2] it was 32 nM; in test [3] (Mus musculus, 72 h), 225 nM.
For the molecule `Cn1nccc1Nc1cc(Oc2ccc(NC(=O)c3cnc4n(c3=O)CCC4)nc2)ccn1` [Compound 47], the IC50 in test [1] was 3 nM; in test [2], 5 nM; in test [3] (Mus musculus, 72 h), 6 nM.
The corresponding values for `Cc1ncc(C(=O)Nc2ccc(Oc3ccnc(Nc4ccn(C(F)F)n4)c3)cn2)c(=O)n1C` [Compound 68] are 6 nM, 7 nM and 12 nM.
Consider `Cc1ncc(C(=O)Nc2ccc(Oc3ccnc(Nc4ccccn4)c3)cn2)c(=O)n1C` [Compound 65], for which the IC50 is 10 nM in test [1]; 5 nM in test [2]; 8 nM in test [3] (Mus musculus, 72 h).
In the same order, the values of `Cc1ncc(C(=O)Nc2ccc(Oc3ccnc(-c4ccn(C)c4)c3)cn2)c(=O)n1C` [Compound 117, 1,2-dimethyl-N-(5-((2-(1-methyl-1H-pyrrol-3-yl)pyridin-4-yl)oxy)pyridin-2-yl)-6-oxo-1,6-dihydropyrimidine-5-carboxamide] are 8 nM, 7 nM and 9 nM.
In the same order, the values of `Cn1cc(Nc2cc(Oc3ccc(NC(=O)c4cnc5n(c4=O)CCC5)nc3)ccn2)cn1` [Compound 45] are 3 nM, 9 nM and 9 nM.
The corresponding values for `Cc1ncc(-c2cc(Oc3ccc(NC(=O)c4cnc(C)n(C)c4=O)nc3)ccn2)s1` [Compound 62] are 9 nM, 20 nM and 32 nM.
Turning to `Cn1cc(Nc2cc(Oc3ccc(NC(=O)c4cccn(C)c4=O)nc3)ccn2)cn1` [Compound 67], the IC50 amounted to 9 nM in test [1], 33 nM in test [2] and 25 nM in test [3] (72 hours).
On to `CC(C)n1cccc(C(=O)Nc2ncc(Oc3ccnc(-c4cnn(C)c4)c3)cc2C#N)c1=O` [Compound 25], for which the IC50 in test [1] is 38 nM; in test [2], 16 nM; in test [3] (Mus musculus, 72 h) it was 66 nM.
In the case of `CC(C)n1cccc(C(=O)Nc2ccc(Oc3ccnc(-c4nccn4C)c3)cn2)c1=O` [Compound 102], the IC50 in test [1] worked out at 132 nM; in test [2] it was 36 nM; in test [3] (Mus musculus, 72 h) it was 151 nM.
As to `Cn1ccc(Nc2cc(Oc3ccc(NC(=O)c4cnc5n(c4=O)CCC5)nc3)ccn2)n1` [Compound 44], the 50% inhibitory concentration (IC50) in test [1] was found to be 3 nM; in test [2] it was 7 nM; in test [3] (Mus musculus, 72 h) it was 6 nM.
With `CC(C)n1nccc(C(=O)Nc2ccc(Oc3ccnc(-c4ccn(C)c4)c3)cn2)c1=O` [Compound 126], the IC50 in test [1] was found to be 30 nM; in test [2] it was 25 nM; in test [3] (Mus musculus, 72 h) it was 28 nM.
Consider `Cc1ccc(-c2cc(Oc3ccc(NC(=O)c4cccn(C(C)C)c4=O)nc3)ccn2)cn1` [Compound 101], for which the IC50 was found to be 22 nM in test [1]; 7 nM in test [2]; 31 nM in test [3] (Mus musculus, 72 h).
For the molecule `Cn1cc(Nc2cc(Oc3cnc(NC(=O)c4cccn(C)c4=O)c(F)c3)ccn2)cn1` [Compound 4, N-(3-fluoro-5-((2-((1-methyl-1H-pyrazol-4-yl)amino)pyridin-4-yl)oxy)pyridin-2-yl)-1-methyl-2-oxo-1,2-dihydropyridine-3-carboxamide], the IC50 in test [1] amounted to 28 nM; in test [2], 66 nM; in test [3] (Mus musculus, 72 h), 60 nM.
In the same order, the values of `Cc1nc(NC(=O)c2cccn(C(C)C)c2=O)ccc1Oc1ccnc(-c2cnn(C)c2)c1` [Compound 93, 1-isopropyl-N-(6-methyl-5-((2-(1-methyl-1H-pyrazol-4-yl)pyridin-4-yl)oxy)pyridin-2-yl)-2-oxo-1,2-dihydropyridine-3-carboxamide] are 61 nM, 17 nM and 13 nM.
